The term inhibition denotes the drop in the measured response relative to a control, in per cent.

We go through six compounds from US7714146B2, “Azulene-oxindole compounds as multiple-kinase inhibitors and useful as anticancer agents” (Industrial Technology Research Institute, priority 2006, dated 2010).

Structures are written as SMILES.

What all share (type): biochemical
Test [1] deals with T1, human c-KIT (Thr544-Val976) (Homo sapiens, UniProt P10721).
T1 construct: human c-KIT (Thr544-Val976); GST (N); purchased Cell Signaling Technology; host or cells: baculovirus expression system
T1 sequence (P10721 544-976): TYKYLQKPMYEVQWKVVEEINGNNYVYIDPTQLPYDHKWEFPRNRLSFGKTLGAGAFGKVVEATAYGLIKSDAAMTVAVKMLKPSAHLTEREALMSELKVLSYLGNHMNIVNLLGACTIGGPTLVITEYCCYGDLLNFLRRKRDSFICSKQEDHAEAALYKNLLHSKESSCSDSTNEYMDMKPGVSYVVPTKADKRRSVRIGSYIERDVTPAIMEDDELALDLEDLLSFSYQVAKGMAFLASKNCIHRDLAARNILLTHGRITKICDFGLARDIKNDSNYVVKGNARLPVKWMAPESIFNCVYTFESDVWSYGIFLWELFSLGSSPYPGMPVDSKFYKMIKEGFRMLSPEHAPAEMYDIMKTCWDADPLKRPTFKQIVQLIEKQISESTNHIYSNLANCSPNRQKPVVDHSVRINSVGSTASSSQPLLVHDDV
In words: c-KIT kinase assay (HTScan kit, DELFIA). As to conditions: for inhibition at 0.1 µM: compound at 0.1 μM, read-out: c-KIT 0.1 μM, % of inhibition relative to control; for inhibition at 1 µM: compound at 1 μM, read-out: c-KIT 1 μM, % of inhibition relative to control. The essentials: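 GST-tagged human c-KIT (Thr544-Val976) from baculovirus, with 1.5 μM biotinylated KDR Tyr-996 peptide and 20 μM ATP in HEPES pH 7.5 buffer containing Mg2+/Mn2+ and 1% DMSO. Enzyme and compound pre-incubated 5 min, reaction run 30 min at room temperature; phosphorylation detected by DELFIA.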

Test [2] deals with T2, human FLT-3 (Arg571-Ser993) (Homo sapiens, UniProt P36888).
T2 construct: human FLT-3 (Arg571-Ser993); GST (N); purchased Cell Signaling Technology; host or cells: baculovirus expression system
T2 sequence (P36888 571-993): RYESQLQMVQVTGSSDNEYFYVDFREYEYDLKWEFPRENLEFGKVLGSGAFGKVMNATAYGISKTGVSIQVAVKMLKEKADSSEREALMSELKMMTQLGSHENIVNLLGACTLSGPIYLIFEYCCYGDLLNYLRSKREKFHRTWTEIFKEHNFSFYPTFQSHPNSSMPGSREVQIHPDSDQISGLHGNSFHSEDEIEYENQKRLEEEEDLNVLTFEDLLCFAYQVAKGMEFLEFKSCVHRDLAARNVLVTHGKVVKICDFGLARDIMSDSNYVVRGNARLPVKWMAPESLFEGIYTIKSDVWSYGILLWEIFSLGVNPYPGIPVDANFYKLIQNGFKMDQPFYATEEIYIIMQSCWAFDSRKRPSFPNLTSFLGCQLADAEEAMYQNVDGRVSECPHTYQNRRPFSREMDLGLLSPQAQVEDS
In words: FLT-3 kinase assay (HTScan kit, DELFIA). As to conditions: for inhibition at 0.1 µM: compound at 0.1 μM, read-out: FLT-3 0.1 μM, % of inhibition relative to control; for inhibition at 1 µM: compound at 1 μM, read-out: FLT-3 1 μM, % of inhibition relative to control. The essentials:
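GST-tagged human FLT-3 (Arg571-Ser993, baculovirus-expressed) phosphorylated 1.5 μM biotinylated gastrin precursor peptide with 20 μM ATP in HEPES pH 7.5, Mg/Mn buffer and 1% DMSO. After 5 min preincubation, the reaction ran 30 min at room temperature. Phosphorylation was read by DELFIA.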

For test [3], the target named is T3, human VEGFR-2 (Val789-Val1356) (Homo sapiens, UniProt P35968).
T3 construct: human VEGFR-2 (Val789-Val1356); GST (N); purchased Cell Signaling Technology; host or cells: baculovirus expression system
T3 sequence (P35968 789-1356): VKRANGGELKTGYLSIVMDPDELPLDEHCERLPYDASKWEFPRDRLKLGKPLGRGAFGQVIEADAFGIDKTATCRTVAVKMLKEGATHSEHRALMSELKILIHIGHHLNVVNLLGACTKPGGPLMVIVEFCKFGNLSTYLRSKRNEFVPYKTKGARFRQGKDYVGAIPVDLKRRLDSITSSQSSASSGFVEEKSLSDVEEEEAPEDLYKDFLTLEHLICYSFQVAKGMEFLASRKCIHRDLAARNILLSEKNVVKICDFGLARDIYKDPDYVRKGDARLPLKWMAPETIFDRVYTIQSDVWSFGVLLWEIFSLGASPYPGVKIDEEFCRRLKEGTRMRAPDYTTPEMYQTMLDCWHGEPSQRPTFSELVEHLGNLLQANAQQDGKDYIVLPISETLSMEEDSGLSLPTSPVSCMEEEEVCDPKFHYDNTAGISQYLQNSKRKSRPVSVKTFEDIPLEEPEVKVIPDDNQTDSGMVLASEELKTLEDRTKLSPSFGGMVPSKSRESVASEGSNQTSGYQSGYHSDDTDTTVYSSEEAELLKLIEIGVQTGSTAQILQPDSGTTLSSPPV
In words: KDR kinase assay (HTScan VEGFR-2 kit, DELFIA). As to conditions: for inhibition at 0.1 µM: compound at 0.1 μM, read-out: KDR 0.1 μM, % of inhibition relative to control; for inhibition at 1 µM: compound at 1 μM, read-out: KDR 1 μM, % of inhibition relative to control. The essentials:
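GST-tagged human VEGFR-2 (Val789-Val1356) from baculovirus, with 1.5 μM biotinylated gastrin precursor peptide and 20 μM ATP in HEPES pH 7.5, Mg/Mn, vanadate, DTT, 1% DMSO. Pre-incubation 5 min, reaction 30 min at room temperature; phosphorylation read by DELFIA.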

In test [4] the target is T4, human PDGFRβ (Gln557-Leu1106) (Homo sapiens, UniProt P09619).
T4 construct: human PDGFRβ (Gln557-Leu1106); GST (N); purchased Cell Signaling Technology; host or cells: baculovirus expression system
T4 sequence (P09619 557-1106): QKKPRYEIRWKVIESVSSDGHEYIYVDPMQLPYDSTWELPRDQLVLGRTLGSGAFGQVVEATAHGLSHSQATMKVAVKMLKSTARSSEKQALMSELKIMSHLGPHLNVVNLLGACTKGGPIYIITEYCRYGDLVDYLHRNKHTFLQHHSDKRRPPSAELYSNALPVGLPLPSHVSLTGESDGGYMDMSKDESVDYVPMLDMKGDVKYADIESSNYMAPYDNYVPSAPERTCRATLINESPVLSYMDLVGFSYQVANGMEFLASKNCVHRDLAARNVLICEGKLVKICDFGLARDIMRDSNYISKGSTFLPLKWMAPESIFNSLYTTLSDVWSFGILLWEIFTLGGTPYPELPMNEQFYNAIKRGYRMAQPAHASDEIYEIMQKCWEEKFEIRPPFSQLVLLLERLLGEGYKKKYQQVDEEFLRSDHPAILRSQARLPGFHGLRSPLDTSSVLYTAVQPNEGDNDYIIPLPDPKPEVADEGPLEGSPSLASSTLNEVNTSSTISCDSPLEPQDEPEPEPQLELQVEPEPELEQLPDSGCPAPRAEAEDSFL
In words: PDGFR-beta kinase assay (HTScan kit, DELFIA). The conditions noted are these: compound at 10 μM. The method, then:
Compounds 1-100 were treated for their efficacy in inhibiting activities of FLT-3, c-KIT, KDR/Flk-1, PDGFR-beta, EGFR, and PKC kinases by biochemical DELFIA (Dissociation Enhanced Lanthanide FIA) assays according to the procedure described below. The assays were conducted by, Division of Cell Engineering, Biomedical Engineering Research Laboratories, Industrial Technology Research Institute, Bldg. 53, 195, sec. 4, Chung Hsing Rd. Chutung, Hsinchu, Taiwan 310, R.O.C.
The PDGFR-beta assay was conducted following the protocol described in Protocol for HTScan® PDGFR-beta Kinase Assay Kit (Cell Signaling Technology®). The assay was conducted under the following conditions: PDGFR-beta source: The GST-Kinase fusion protein was produced using a baculovirus expression system with a construct expressing human PDGFRβ (Gln557-Leu1106) (GenBank Accession No. NM_002609) with an amino-terminal GST tag, substrate: This biotinylated peptide contains the residues surrounding Tyr-589 of FLT-3, vehicle: 1% DMSO, pre-incubation time/temperature: 5 minutes at room temperature, incubation time/temperature: 30 minutes at room temperature, incubation buffer: 60 mM HEPES pH 7.5, 5 mM MgCl2, 5 mM MnCl2, 3 μM Na3VO4, 1.25 mM DTT, 20 μM ATP, and quantitative method: DELFIA® Assay.

Regarding `O=C1Nc2ccccc2/C1=C\c1c2cccccc-2[nH]c1=O` [Compound 27, 3-(2-Oxo-1,2-dihydro-indol-3-ylidenemethyl)-1H-cyclohepta[b]pyrrol-2-one], the inhibition at 0.1 µM in test [1] came out at 25.7%; in test [2] it was 8.6%; in test [3], 25.9%. Also, the inhibition at 1 µM came out at 25.7% in test [1], 30.9% in test [2] and 39.5% in test [3]. The “PDGFR-β 10 μM, % of inhibition relative to control” value in test [4] amounted to 5.3%.

As to `COC(=O)c1cc(/C=C2\C(=O)Nc3ccccc32)c2cccccc1-2` [Compound 16, 3-(2-Oxo-1,2-dihydro-indol-3-ylidenemethyl)-azulene-1-carboxylic acid methyl ester], the inhibition at 0.1 µM in test [1] was 2.8%; in test [2], 7.7%; in test [3] it was 15.4%. Moreover, the inhibition at 1 µM was 2.8% in test [1] and 20.1% in test [3]. Besides, in test [4], the “PDGFR-β 10 μM, % of inhibition relative to control” value was found to be 3.6%.

On to `O=C1Nc2ccc(Cl)cc2/C1=C\c1ccc2cccccc1-2` [Compound 22, 3-Azulen-1-ylmethylene-5-chloro-1,3-dihydro-indol-2-one], for which the inhibition at 0.1 µM amounted to 16.6% in test [1], 28.8% in test [2] and 15.6% in test [3]. The inhibition at 1 µM in test [1] was determined as 16.6%; in test [2] it was 30.3%; in test [3], 40.6%. The “PDGFR-β 10 μM, % of inhibition relative to control” value in test [4] was determined as 5.3%.

For `O=C1Nc2ccc(Br)cc2/C1=C\c1ccc2cccccc1-2` [Compound 7, 3-Azulen-1-ylmethylene-5-bromo-1,3-dihydro-indol-2-one], the inhibition at 0.1 µM in test [1] was 30.9%; in test [2], 17.8%; in test [3], 29.5%. Moreover, the inhibition at 1 µM was 30.9% in test [1], 40.1% in test [2] and 28.8% in test [3]. Further, the “PDGFR-β 10 μM, % of inhibition relative to control” value in test [4] was found to be 4.7%.

As to `O=C1Nc2ccc([N+](=O)[O-])cc2/C1=C/c1ccc2cccccc1-2` [Compound 8, 3-Azulen-1-ylmethylene-5-nitro-1,3-dihydro-indol-2-one], the inhibition at 0.1 µM in test [1] turned out to be 36.4%; in test [3], 26.4%. Moreover, the inhibition at 1 µM in test [1] was 36.4%; in test [2], 11.5%; in test [3], 55.9%. Also, the “PDGFR-β 10 μM, % of inhibition relative to control” value in test [4] turned out to be 16.2%.

In the case of `Cc1cc(C)c2ccc(/C=C3/C(=O)Nc4ccccc43)c-2c(C)c1` [Compound 9, 3-(4,6,8-Trimethyl-azulen-1-ylmethylene)-1,3-dihydro-indol-2-one], the inhibition at 0.1 µM in test [1] is 11.5%; in test [3], 12.3%. The inhibition at 1 µM in test [1] was found to be 11.5%; in test [2], 3.8%; in test [3], 33.4%. Moreover, the “PDGFR-β 10 μM, % of inhibition relative to control” value in test [4] came to 14.7%.
